Legend:
yeast strain BY4742 = test: Detection of leucine by bioluminescence of leucine-auxotrophic BY4742 carrying pRS426-Lux (Example 4); type: cell-based, Saccharomyces cerevisiae; conditions: CSM-Leu-URA medium, leucine added after 5 h incubation, FIG. 4
Procedure: (§1) D-Luciferin sodium salt (Carl Roth, Germany) was dissolved in 0.1 M Na2 HPO4-citrate buffer pH 5 to a final luciferin concentration of 1 mM. 100 μl of an overnight yeast culture was adjusted depending on the experimental question to a suitable starting OD600 of around 1.0 or less in CSM medium. 100 μl of yeast cells, 25 μl of a test solution (e.g., amino acid), and 25 μl of 1 mM luciferin solution were added in this order to a well of a black 96-well microtiter plate with a transparent bottom (Microplate, 96 well, PS, F-Bottom (Chimney Well) μClear®, Black, Med. Binding; Greiner bio-one, Germany) for a measurement. Measurements were performed using a Tristar2S Platereader (Berthold, Germany) at a constant temperature of 28° C.
The yeast strain BY4742 used by the inventors has several auxotrophies, including leucine auxotrophy, which makes this strain useful for leucine detection. For this purpose, the strain was grown overnight in CSM-URA medium. […] After 5 h of incubation, a defined amount of leucine was added and luminescence was subsequently measured (FIG. 4). […] The relationship between available leucine and measured bioluminescence behaves in a concentration-dependent manner within a certain concentration range, so that the leucine concentration can be correlated and measured with the bioluminescence.

[1] = tested on: S. cerevisiae strain BY4742; test: Luminescence comparison of bacterial luciferase construct with Firefly luciferase in BY4742 (Example 2); type: cell-based, Saccharomyces cerevisiae
Procedure: as §1
The luciferase from Photinus pyralis was chosen for comparison because it is most commonly used in bioanalysis (see FIG. 6).
After both plasmids have the same genetic requirements, such as FBA1 promoter and terminator, the same vector backbone and were also transformed into BY4742, both plasmids could be directly compared. The experiment was performed twice with three technical replicates each time. The cultures were grown overnight at 28° C. and were each diluted with 50 μl of fresh medium (YPD medium). For the produced prototype (nucleic acid according to the invention, SEQ ID NO: 7), water was added instead of 50 μl of the luciferin solution (2 mM final concentration).
The luminescence of the Firefly luciferase is about 100,000 RLU. In contrast, the […]. After 5.4 h, only a low luminescence of 6893 can be measured (see FIG. 2D). The CSM-URA plates were photographed in daylight (FIG. 2A) and in complete darkness (FIG. 2B) by a commercial photographic camera. The naked eye was also able to perceive the light produced by the yeasts.

| Molecule | leucine concentration from which organisms grow and light signal increases regardless of concentration (yeast strain BY4742) [mg/L] | leucine concentration with limiting effect on cell metabolism and maximum possible bioluminescence (yeast strain BY4742) | initial luminescence ([1]; BY4742, FBA1 promoter/terminator, YPD, luciferin 2 mM added only for Firefly, FIG. 2D) | luminescence after 5.4 h ([1]; BY4742, FIG. 2D, luciferin added only for Firefly) [RLU] | luminescence after 1.7 h ([1]; BY4742, luciferin 2 mM final, FIG. 2D) |
| --- | --- | --- | --- | --- | --- |
| CC(C)C[C@H](N)C(=O)O [leucine] | > 49 | less than 20 mg/L | – | – | – |
| Firefly luciferase: plasmid encoding Photinus pyralis luciferase under the FBA1 promoter and terminator, same pRS426 backbone | – | – | 52,475 RLU | 6893 | 19,143 RLU |
